Results reported in ChEMBL document CHEMBL1201862, “PubChem BioAssay data set” (2004).
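Results reflect a 48-hour exposure of cells in 96-well plates to compound at five concentrations. GI50 = concentration required for 50% inhibition of growth.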 Active and inactive are the calls of the source. Cut-off read from the data, not from the text of the source: active = GI50 up to about 1.1 µM and inactive = higher.

Columns and labels:
Assay in all cases: NCI tumour cell line growth inhibition, 48 h
[1] = tested on: A498
[2] = tested on: A549
[3] = tested on: MDA-MB-231
[4] = tested on: SN12C
[5] = tested on: MOLT-4
[6] = tested on: SK-OV-3
[7] = tested on: NCI-H522
[8] = tested on: K562
[9] = tested on: BT-549
[10] = tested on: U-251
[11] = tested on: Malme-3M
[12] = tested on: NCI-H226
[13] = tested on: PC-3
[14] = tested on: HOP-92

Measured: GI50

CCCSc1cc(Cl)c(C)cc1S(=O)(=O)n1ccnc1OCCCN(C)C
inactive: [1] > 100 µM | [2] > 100 µM | [3] > 100 µM | [4] > 100 µM | [5] > 100 µM | [6] > 100 µM | [7] > 100 µM | [8] > 100 µM | [9] > 100 µM | [10] > 100 µM | [11] > 100 µM | [12] > 100 µM | [13] > 100 µM

CO/C(=C/C(=O)C(Cl)(Cl)Cl)CC/C(=C\C(=O)C(Cl)(Cl)Cl)OC
inactive: [1] 35.3 µM | [2] 47.4 µM | [3] 42.2 µM | [14] 18.4 µM | [4] 23.2 µM | [5] 21.4 µM | [6] 30.4 µM | [7] 20.1 µM | [8] 25.8 µM | [9] 27.9 µM | [10] 22.8 µM | [11] 23 µM | [13] 27.4 µM

Cc1ccc([S+]([O-])c2sccc2C=O)cc1 (stereo not drawn)
inactive: [1] > 100 µM | [2] > 100 µM | [3] 26.4 µM | [4] 22.9 µM | [5] 21.3 µM | [6] > 100 µM | [7] 41.1 µM | [8] 48.6 µM | [9] 25 µM | [10] 18.9 µM | [11] 23.4 µM | [13] 34 µM

O=C(CNC(=O)OCc1ccccc1)NCCCCC(NC(=O)OCc1ccccc1)C(=O)NC(CCCCNC(=O)CNC(=O)OCc1ccccc1)C(=O)OCc1ccccc1 (stereo not drawn)
inactive: [1] > 62.5 µM | [2] > 62.5 µM | [3] > 62.5 µM | [4] > 62.5 µM | [5] > 62.5 µM | [7] 26.9 µM | [8] > 62.5 µM | [9] > 62.5 µM | [10] > 62.5 µM | [11] > 62.5 µM | [12] > 62.5 µM | [13] > 62.5 µM

CC1CC(=O)N2CCCNC2=C1C#N (stereo not drawn)
inactive: [2] > 100 µM | [3] > 100 µM | [4] > 100 µM | [5] > 100 µM | [6] > 100 µM | [7] > 100 µM | [8] > 100 µM | [9] > 100 µM | [10] > 100 µM | [11] > 100 µM | [12] > 100 µM | [13] > 100 µM

CP(C)(=S)P(C)(C)=S
inactive: [2] > 100 µM | [3] > 100 µM | [4] > 100 µM | [5] > 100 µM | [6] > 100 µM | [7] > 100 µM | [8] > 100 µM | [9] > 100 µM | [10] > 100 µM | [11] > 100 µM | [12] > 100 µM | [13] > 100 µM

CC(=O)C1(Cc2cccc3ccccc23)S(=O)(=O)OCCOS1(=O)=O
inactive: [1] 19 µM | [3] 15.8 µM | [14] 15.5 µM | [4] 11.9 µM | [5] 29.1 µM | [6] 2.72 µM | [7] 21.6 µM | [8] 28.4 µM | [9] 16.9 µM | [10] 16.7 µM | [11] 17.3 µM | [12] 16.8 µM | [13] 14.2 µM

COc1c(/C=C/C=O)cc2c(c1OC)OCO2
inactive: [1] 1.21 µM | [2] > 100 µM | [3] 31.6 µM | [14] 61.5 µM | [4] 24.2 µM | [5] 20.5 µM | [6] 60.8 µM | [7] 78.3 µM | [9] 47.3 µM | [10] 23.2 µM | [11] 20.7 µM | [12] 2.96 µM | [13] 34.5 µM

N#Cc1c(C#N)c(-c2ccccc2)n(Cc2ccccc2)c1N
inactive: [1] > 100 µM | [2] > 100 µM | [3] 26.9 µM | [4] > 100 µM | [5] > 100 µM | [6] > 100 µM | [7] > 100 µM | [8] > 100 µM | [9] > 100 µM | [10] 80.5 µM | [11] > 100 µM | [12] > 100 µM | [13] > 100 µM

Cn1c(=N)n[n+]([O-])c2ccccc21
inactive: [2] 11.7 µM | [3] 11.7 µM | [14] 23.7 µM | [4] 2.13 µM | [5] 1.87 µM | [6] 22.9 µM | [7] 2.86 µM | [8] 1.36 µM | [9] 2.01 µM | [10] 7.69 µM | [11] 2.34 µM | [12] 13.4 µM | [13] 6.28 µM

Cc1ccc(OCC2OC(n3cnc4c(N(C)C)nc(Br)nc43)CC2Oc2ccc(C)cc2)cc1 (stereo not drawn)
inactive: [1] > 100 µM | [2] > 100 µM | [3] > 100 µM | [14] > 100 µM | [4] > 100 µM | [6] > 100 µM | [7] > 100 µM | [8] > 100 µM | [9] > 100 µM | [10] > 100 µM | [11] > 100 µM | [12] > 100 µM | [13] > 100 µM

COc1cc(/C=C2\C[C@H]3[C@@H]4CC=C5C[C@@H](OC(C)=O)CC[C@]5(C)[C@H]4CC[C@]3(C)\C2=N\O)cc(OC)c1OC
inactive: [2] 4.69 µM | [3] 15.1 µM | [14] 2.59 µM | [4] 6.37 µM | [5] 2.36 µM | [6] 25.5 µM | [7] 4.85 µM | [8] 4.27 µM | [9] 5.01 µM | [10] 7.41 µM | [11] 8.95 µM | [12] 8.45 µM | [13] 2.54 µM

CC(C)=CCc1c2c(c(O)c3c(=O)c4c(oc13)-c1ccc(O)cc1OC4C=C(C)C)C=CC(C)(C)O2 (stereo not drawn)
inactive: [1] 19.5 µM | [2] 10.8 µM | [3] 14.2 µM | [14] 7.11 µM | [4] 6.35 µM | [6] 18.5 µM | [7] 12.4 µM | [8] 8.65 µM | [9] 13.9 µM | [10] 12.2 µM | [11] 19.3 µM | [12] 21.9 µM | [13] 12.1 µM

CSc1nc(=O)n(CCC#N)nc1SC
inactive: [1] > 100 µM | [2] > 100 µM | [3] 19.2 µM | [4] 47.9 µM | [5] 23.7 µM | [6] > 100 µM | [7] 25.6 µM | [8] 25.6 µM | [9] 23.5 µM | [10] > 100 µM | [11] 15.2 µM | [12] 39.3 µM | [13] 66.5 µM

O=C(NCCN(CCNC(=O)c1cccc(=O)n1O)CCN(CCNC(=O)c1cccc(=O)n1O)CCNC(=O)c1cccc(=O)n1O)c1cccc(=O)n1O
inactive: [1] > 100 µM | [2] > 100 µM | [3] > 100 µM | [14] > 100 µM | [4] > 100 µM | [6] > 100 µM | [7] > 100 µM | [8] > 100 µM | [9] > 100 µM | [10] > 100 µM | [11] 60.8 µM | [12] > 100 µM | [13] > 100 µM

CC(=O)OC[C@@]12Cc3ccc(C)c(O)c3[C@]1(C)[C@@H](OC(C)=O)[C@]1(O)[C@H]([C@@H](OC(=O)c3ccccc3)[C@@H](C)[C@H]1OC(C)=O)[C@H]2OC(C)=O
inactive: [1] > 50 µM | [3] > 50 µM | [14] > 50 µM | [4] > 50 µM | [5] > 50 µM | [6] > 50 µM | [7] > 50 µM | [8] > 50 µM | [9] > 50 µM | [10] > 50 µM | [12] > 50 µM | [13] > 50 µM

Nc1nc(Cl)cc(NC2(CO)CCC2)n1
inactive: [1] > 100 µM | [2] > 100 µM | [3] > 100 µM | [14] > 100 µM | [4] > 100 µM | [5] > 100 µM | [7] > 100 µM | [8] > 100 µM | [9] > 100 µM | [10] > 100 µM | [11] > 100 µM | [12] > 100 µM | [13] > 100 µM

NC1=NCC(CN2CCCCC2)O1 (stereo not drawn)
inactive: [2] > 100 µM | [3] > 100 µM | [4] > 100 µM | [5] > 100 µM | [6] 4.12 µM | [7] > 100 µM | [8] > 100 µM | [9] > 100 µM | [10] > 100 µM | [11] > 100 µM | [12] > 100 µM | [13] > 100 µM

CC1(C)C=Cc2c(cc3oc4ccc5c(c4c(=O)c3c2O)C=CC(C)(C)O5)O1
inactive: [1] > 100 µM | [2] > 100 µM | [3] > 100 µM | [14] > 100 µM | [4] > 100 µM | [5] > 100 µM | [6] > 100 µM | [7] > 100 µM | [9] > 100 µM | [10] > 100 µM | [11] > 100 µM | [12] > 100 µM | [13] > 100 µM

CC(=O)NNc1nc(C)c(C(/C=C/c2ccc([N+](=O)[O-])cc2)=N/NC(N)=O)s1
inactive: [1] > 100 µM | [2] > 100 µM | [3] > 100 µM | [14] > 100 µM | [4] > 100 µM | [5] > 100 µM | [6] > 100 µM | [7] > 100 µM | [8] > 100 µM | [9] > 100 µM | [10] > 100 µM | [11] > 100 µM | [12] > 100 µM | [13] > 100 µM

O=C(NNC(=O)c1ccncc1)c1ccncc1
inactive: [1] > 100 µM | [2] > 100 µM | [3] > 100 µM | [14] > 100 µM | [4] > 100 µM | [5] > 100 µM | [6] > 100 µM | [7] > 100 µM | [8] > 100 µM | [9] > 100 µM | [10] > 100 µM | [11] > 100 µM | [13] > 100 µM
